The text below walks through data of patent publication US5614526A, “Use of phenoxy-piperzine derivatives” (Hoffmann-La Roche Inc., priority 1995, dated 1997).

One assay deals with T1, dopamine-D4 receptor (Homo sapiens, UniProt P21917).
T1 construct: expressed in transfected cells; host or cells: CHO (Chinese Hamster Ovary) cells, D4-CHO; crude membranes
T1 sequence (P21917 1-419): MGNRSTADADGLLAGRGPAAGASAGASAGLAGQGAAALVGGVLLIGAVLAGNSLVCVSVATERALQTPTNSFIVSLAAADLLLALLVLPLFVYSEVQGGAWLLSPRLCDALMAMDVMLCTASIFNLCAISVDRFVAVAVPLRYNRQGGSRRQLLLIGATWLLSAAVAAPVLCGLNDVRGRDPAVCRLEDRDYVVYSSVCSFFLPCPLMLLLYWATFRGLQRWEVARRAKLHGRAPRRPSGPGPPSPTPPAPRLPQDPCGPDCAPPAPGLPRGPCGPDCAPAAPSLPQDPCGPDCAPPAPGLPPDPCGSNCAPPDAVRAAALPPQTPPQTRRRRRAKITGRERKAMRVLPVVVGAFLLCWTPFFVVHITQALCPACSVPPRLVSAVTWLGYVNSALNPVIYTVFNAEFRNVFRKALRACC
Put plainly: Binding at the D4 receptor, [3H]spiperone displacement, membranes of D4-CHO cells. The conditions noted are these: Table 1, 200 pM [3H]spiperone, room temperature, 90 minutes. As to the method:
Compounds of formula I were characterized by their binding behavior at the D4 receptor. CHO cells (Chinese Hamster Ovary) were used in the test. Crude membranes were isolated by ultracentrifugation from D4 -CHO and D2 -CHO cells and were stored at -80° C. After thawing and homogenizing in a buffer solution (50mM Tris, 1 mM EDTA, 5 mM KCl, 1.5 mM CaCl2, 4 mM MgCl2, pH 7.4) they were incubated at room temperature for 90 minutes with 200 pM [^3 H] spiperone and an increasing concentration (1×10^-11 M to 1×10^-4 M) of test compound. A non-specific binding was established by incubating in the presence of 1×10^-5 M (+)-butaclamol. The unbound radioligand was removed by filtration through a GF/C glass filter and the bound radioactivity was determined by scintillation in a Packard TopCount. […] The calculation of the value was effected with ligand.
Turning to `COc1ccccc1N1CCN(CC(O)COc2ccc(C)cc2NC(C)=O)CC1` (stereo not drawn) [Compound 19, N-[2-[2-Hydroxy-3-[4-(2-methoxy-phenyl)-piperazin-1-yl]-proxpoxy]-5-methyl-phenyl]-acetamide], the Ki is below 100 nM. As to `OC(COc1cccc(C(F)(F)F)c1)CN1CCN(c2ccc(Cl)cc2)CC1` (stereo not drawn) [Compound 5, 1-[4-(4-Chloro-phenyl)-piperazin-1-yl]-3-(3-trifluoro-methyl-phenoxy)-propan-2-ol], the Ki is below 100 nM.

Compound `COc1ccccc1N1CCN(CC(O)COc2ccccc2NC(C)=O)CC1` (racemic) [10(rac), N-[2-[2-Hydroxy-3-[4-(2-methoxy-phenyl)-piperazin-1-yl]-propoxy]-phenyl]-acetamide] showed a Ki below 100 nM. For the compound `CC(=O)Nc1ccccc1OCC(O)CN1CCN(c2ccccc2C(F)(F)F)CC1` (stereo not drawn) [Compound 7, N-[2-[2-Hydroxy-3-[4-(2-trifluoromethyl-phenyl)-piperazin-1yl]-propoxy]phenyl]-acetamide], the Ki was below 100 nM. On the same count and under the same terms, as for `OC(COc1ccccc1)CN1CCN(c2ccccc2)CC1` (stereo not drawn) [Compound 1, 1-Phenoxy-3-(4-phenyl-piperazin-1-yl)-propan-2-ol], the figure is below 100 nM; as for `COc1ccccc1N1CCN(CC(O)COc2ccccc2NC(=O)c2ccco2)CC1` (stereo not drawn) [Compound 17, Furan-2-carboxylic acid [2-[2hydroxy-3-[4-(2-methoxy-phenyl)piperazin-1-yl]-propoxy]-phenyl]-amide], below 100 nM; as for `CCC(=O)Nc1ccccc1OCC(O)CN1CCN(c2ccccc2OC)CC1` (stereo not drawn) [Compound 13, N-[2-[2-Hydroxy-3-[4-(2-methoxy-phenyl)-piperazin-1-yl]-propoxy]-phenyl]propionamide], below 100 nM. The compound `CC(=O)Nc1ccccc1OCC(O)CN1CCN(c2ccccc2C)CC1` (stereo not drawn) [Compound 6, N-[2-[2-Hydroxy-3-(4-o-tolyl-piperazin-1-yl)-propoxy]-phenly]-acetamide] showed a Ki below 100 nM. Same read-out and setting: as for `CCOc1ccccc1N1CCN(CC(O)COc2ccccc2NC(=O)CC)CC1` (stereo not drawn) [Compound 21, N-[2-[3-[4-(2-Ethoxy-phenyl)-piperazin-1-yl]-2-hydroxy-propoxy]-phenyl]propionamide], the figure is below 100 nM. On the same count and under the same terms, under `NC(=O)c1ccccc1OCC(O)CN1CCN(c2ccccc2)CC1` (stereo not drawn) [Compound 4, 2-[2-Hydroxy-3-(4-phenyl-piperazin-1-yl)-propoxy]-benzamide] stands below 100 nM; under `COc1ccccc1N1CCN(CC(O)COc2cc(C)ccc2NC(C)=O)CC1` (stereo not drawn) [Compound 20, N-[2-[2-Hydroxy-3-[4-(2-methoxy-phenyl)-piperazin-1-yl]-propoxy]-4-methyl-phenyl]-acetamide], below 100 nM; under `Nc1ccccc1OCC(O)CN1CCN(c2ccccc2[N+](=O)[O-])CC1` (stereo not drawn) [Compound 22, 1-(2-Amino-phenoxy)-3-[4-(2-nitro-phenyl)-piperazin-1-yl]-propan-2-ol], below 100 nM. On the same count and under the same terms, under `Nc1ccccc1OCC(O)CN1CCN(c2ccccc2)CC1` (stereo not drawn) [Compound 2, 1-(2-Amino-phenoxy)-3-(4-phenyl-piperazin-1-yl)-propan-2-ol] stands below 100 nM; under `COc1ccccc1N1CCN(CC(O)COc2ccccc2NC(C)=O)CC1` (single isomer, unassigned) [11(+), [+]-N-[2-[2-Hydroxy-3-[4-(2-methoxy-phenyl)-piperazin-1-yl]-propoxy]phenyl]-acetamide], below 100 nM. As to `CC(=O)c1ccccc1OCC(O)CN1CCN(c2ccccc2)CC1` (stereo not drawn) [Compound 3, 1-[2-[2-Hydroxy-3-(4-phenyl-piperazin-1-yl)-propoxy]-phenyl]-ethanone], the Ki is below 100 nM. On the same count and under the same terms, as for `COc1ccccc1N1CCN(CC(O)COc2ccccc2NC(C)=O)CC1` (single isomer, unassigned) [12(-), [-]-N-[2-[2-Hydroxy-3-[4-(2-methoxy-phenyl)-piperazin-1-yl]-propoxy]phenyl]-acetamide], the figure is below 100 nM; as for `COc1ccccc1N1CCN(CC(O)COc2ccccc2NC(=O)C(C)(C)C)CC1` (stereo not drawn) [Compound 15, N-[2-[2-Hydroxy-3-[4-(2-methoxy-phenyl)-piperazin-1-yl]-propoxy]-phenyl]-2,2-dimethyl-propionamide], below 100 nM. On the same count and under the same terms, as for `COc1ccccc1N1CCN(CC(COc2ccccc2NC(C)=O)OC(C)=O)CC1` (stereo not drawn) [Compound 30, Ethyl 2-(2-acetylamino-phenoxy)-1-[4-(2-methoxy-phenyl)-piperazin-1-ylmethyl]-acetate], the figure is below 100 nM; as for `CC(=O)Nc1ccccc1OCC(O)CN1CCN(c2ccccc2O)CC1` (stereo not drawn) [Compound 8, N-[2-[2-Hydroxy-3-[4-(2-hydroxy-phenyl)-piperazin-1-yl]-propoxy]-phenyl]-acetamide], below 100 nM; as for `COc1ccccc1N1CCN(CC(O)COc2ccccc2N)CC1` (single isomer, unassigned) [9(+), [+]-1-(2-Amino-phenoxy)-3-[4(2-methoxy-phenyl)-piperazin-1-yl]-propan-2-ol], below 100 nM.

`C/C=C/C(=O)Nc1ccccc1OCC(O)CN1CCN(c2ccccc2OC)CC1` (single isomer, unassigned) [Compound 16, [+]-(E)-But-2-enolic acid [2-[2-hydroxy-3-[4-(2-methoxy-phenyl)-piperazin-1-yl]-propoxy]-phenyl]-amide] yielded a Ki below 100 nM. As for `CCCCCC(=O)Nc1ccccc1OCC(O)CN1CCN(c2ccccc2OC)CC1` (stereo not drawn) [Compound 14, Hexanoic acid [2-[2-hydroxy-3-[4-(2-methoxy-phenyl)-piperazin-1-yl]propoxy]-phenyl]-amide], the Ki is below 100 nM. On to `COc1ccccc1N1CCN(CC(COc2ccccc2NC(C)=O)OC(C)=O)CC1` (single isomer, unassigned) [31(+), Ethyl [+]-2-(2-acetylamino-phenoxy)-1-[4-(2-methoxy-phenyl)-piperazin-1-ylmethyl]acetate], for which the inhibitory constant (Ki) was below 100 nM. In the case of `COc1ccccc1N1CCN(CC(O)COc2ccccc2NC(N)=O)CC1` (stereo not drawn) [Compound 18, [2-[2-Hydroxy-3-[4-(2-methoxy-phenyl)-piperazin-1-yl]propoxy]-phenyl]-urea], the Ki is below 100 nM.

The assay is the same for the next values; noted with them: Table 2, 200 pM [3H]spiperone, room temperature, 90 minutes.
As for `CCC(=O)Nc1ccccc1OCC(O)CN1CCN(c2ccccc2)CC1` (stereo not drawn) [Compound 24], the affinity corresponds to a Ki of 29 nM. On to `CC(=O)Nc1ccccc1OCC(O)CN1CCN(c2ccccc2[N+](=O)[O-])CC1` (stereo not drawn) [Compound 29], for which the affinity, expressed as Ki, was 8.7 nM. Same read-out and setting: as for `Cc1cccc(OCC(O)CN2CCN(c3ccccc3)CC2)c1` (stereo not drawn) [Compound 23], the figure is 9.6 nM; as for `COc1ccccc1N1CCN(CC(O)COc2ccccc2NS(C)(=O)=O)CC1` (stereo not drawn) [Compound 26], 3.2 nM.

Compound `COc1ccccc1N1CCN(CC(O)COc2ccc([N+](=O)[O-])cc2NC(C)=O)CC1` (stereo not drawn) [Compound 27] gave a Ki of 15 nM. `COc1cc(O)ccc1N1CCN(CC(O)COc2ccccc2NC(C)=O)CC1` (stereo not drawn) [Compound 25]: the Ki turned out to be 10.2 nM.

The test system of the next assay is D2 receptor. Put plainly: Binding at the D2 receptor, [3H]spiperone displacement, membranes of D2-CHO cells (selectivity vs. D4). The conditions noted are these: ratio of the Ki values at the D2 receptor and at the D4 receptor. Here is the method: CHO cells (Chinese Hamster Ovary) were used in the test. Crude membranes were isolated by ultracentrifugation from D4 -CHO and D2 -CHO cells and were stored at -80° C. After thawing and homogenizing in a buffer solution (50mM Tris, 1 mM EDTA, 5 mM KCl, 1.5 mM CaCl2, 4 mM MgCl2, pH 7.4) they were incubated at room temperature for 90 minutes with 200 pM [^3 H] spiperone and an increasing concentration (1×10^-11 M to 1×10^-4 M) of test compound. A non-specific binding was established by incubating in the presence of 1×10^-5 M (+)-butaclamol. The unbound radioligand was removed by filtration through a GF/C glass filter and the bound radioactivity was determined by scintillation in a Packard TopCount.
Compounds of formula I were compared with respect to their D2 receptor activity.
As for `CCC(=O)Nc1ccccc1OCC(O)CN1CCN(c2ccccc2)CC1` (stereo not drawn) [Compound 24], the “Sel. vs. D2” value is on record as 233.

As to `CC(=O)Nc1ccccc1OCC(O)CN1CCN(c2ccccc2[N+](=O)[O-])CC1` (stereo not drawn) [Compound 29], the “Sel. vs. D2” value was 360. As for `Cc1cccc(OCC(O)CN2CCN(c3ccccc3)CC2)c1` (stereo not drawn) [Compound 23], the “Sel. vs. D2” value is reported as 300.

As to `COc1ccccc1N1CCN(CC(O)COc2ccccc2NS(C)(=O)=O)CC1` (stereo not drawn) [Compound 26], the “Sel. vs. D2” value worked out at 177.

As for `COc1ccccc1N1CCN(CC(O)COc2ccc([N+](=O)[O-])cc2NC(C)=O)CC1` (stereo not drawn) [Compound 27], the “Sel. vs. D2” value amounted to 112.

For the compound `COc1cc(O)ccc1N1CCN(CC(O)COc2ccccc2NC(C)=O)CC1` (stereo not drawn) [Compound 25], the “Sel. vs. D2” value was determined as 1370.

As a reminder, the Ki is the dissociation constant of the complex between target and ligand, obtained from inhibition or displacement. Low values mean a stronger hold on the target, high ones a looser hold on the target.
